Experimental data reported in patent US20140039007A1, “COMPOSITIONS AND METHODS FOR MODULATING FARNESOID X RECEPTORS” (priority 2010, published 2014).

These compounds were tested against T1, human GST-FXR LBD (Homo sapiens, UniProt Q96RI1) (assay: Human GST-FXR LBD Co-activator interaction Assay (FXR HTRF assay)). Conditions: GST-FXR LBD / biotin-labeled SRC-1 peptide, response relative to GW4064.
T1 construct: purchased Invitrogen
T1 sequence (Q96RI1 193-472 isoform Q96RI1-2): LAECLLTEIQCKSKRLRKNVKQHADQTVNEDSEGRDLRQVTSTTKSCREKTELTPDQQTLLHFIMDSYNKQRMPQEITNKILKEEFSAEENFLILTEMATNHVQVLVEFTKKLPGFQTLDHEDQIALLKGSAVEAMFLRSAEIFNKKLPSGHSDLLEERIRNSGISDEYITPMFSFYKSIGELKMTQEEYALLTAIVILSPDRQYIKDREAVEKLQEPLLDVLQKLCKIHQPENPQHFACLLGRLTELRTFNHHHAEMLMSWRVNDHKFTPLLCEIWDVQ
Assay type: biochemical
Description: Human GST-FXR LBD Co-activator interaction Assay.
The FXR HTRF assay is a biochemical assay measuring the interaction between FXR and a coactivator protein (SRC1). The ligand-induced interaction with a coactivator protein is a critical step in transcriptional activation by FXR. Thus, this is an assay designed to measure FXR agonist activity of compounds.
Recombinant human Farnesoid X Receptor (FXR) ligand binding domain (amino acids 193-472) fused to glutathione S-transferase (GST) purified protein (GST-FXR LBD) was purchased (Invitrogen). The ligand-dependent interaction between GST-FXR LBD and a peptide derived from Steroid Receptor Coactivator-1 (SRC-1) was monitored by Fluorescence Resonance Energy Transfer (FRET). GST-FXR LBD was mixed with a biotin-labeled SRC-1 peptide (Sequence: Biotin-[…]-SPS-CONH2, American Peptide) in assay buffer (50 mM Tris HCl, pH 7.4, 50 mM NaCl, 1 mM TCEP and 0.2% bovine serum albumen) and plated in 384 black Proxi plates (Greiner Bio-One). Test compounds (in DMSO solution) and detection reagents (anti-GST-Cryptate labeled antibody and Streptavidin-XL665 conjugate; CisBio) were added in assay buffer containing 50 mM KF. Plates are incubated at room temperature in the dark for 2.5 hours before reading on an Envision (PerkinElmer) at 665 nm and 590 nm. The HTRF assay results were calculated from the 665 nm/590 nm ratio (ratio=(A665 nm/A590 nm)×10^4) and expressed in Delta F %=(Ratiosample−Rationegative)/Rationegative×100.
A negative control (without Streptavidin-XL665) was run with each assay and represented the background fluorescence. A reference FXR agonist, GW4064, was included in each experiment as positive control. The efficacy of each test compound was compared to that of GW4064. At each concentration, the relative activity of the test compound was expressed as Response %=(Rsample−RDMSO)/(Rpositive−RDMSO), where Rsample is the HTRF response, (expressed in Delta F %) for the test compound, Rpositive is the maximal response for GW4064 at saturating concentrations, and RDMSO is the response for DMSO control. The EC50 values were calculated using GraphPad Prism (GraphPad Software) using non-linear regression curve fit (log(agonist) vs. response−variable slope (four parameters)).

Row | EC50 [nM] | SMILES
1 | 2380 | COC(=O)c1ccc(-c2nc(N3CCC(OCc4c(-c5ccccc5OC(F)(F)F)noc4C4CC4)CC3)no2)cc1 [Example 1A, Methyl 4-(3-(4-((5-cyclopropyl-3-(2-(trifluoromethoxy)phenyl)isoxazol-4-yl)methoxy)piperidin-1-yl)-1,2,4-oxadiazol-5-yl)benzoate]
2 | 90 | O=C(O)c1ccc(-c2nc(N3CCC(OCc4c(-c5ccccc5OC(F)(F)F)noc4C4CC4)CC3)no2)cc1 [Example 1B, 4-(3-(4-((5-cyclopropyl-3-(2-(trifluoromethoxy)phenyl)isoxazol-4-yl)methoxy)piperidin-1-yl)-1,2,4-oxadiazol-5-yl)benzoic acid]
3 | 2020 | COC(=O)c1cccc(-c2nc(N3CCC(OCc4c(-c5ccccc5OC(F)(F)F)noc4C4CC4)CC3)no2)c1 [Example 2A, methyl 3-{3-[4-({5-cyclopropyl-3-[2-(trifluoromethoxy)phenyl]-1,2-oxazol-4-yl}methoxy)piperidin-1-yl]-1,2,4-oxadiazol-5-yl}benzoate]
4 | 128 | O=C(O)c1cccc(-c2nc(N3CCC(OCc4c(-c5ccccc5OC(F)(F)F)noc4C4CC4)CC3)no2)c1 [Example 2B, 3-{3-[4-({5-cyclopropyl-3-[2-(trifluoromethoxy)phenyl]-1,2-oxazol-4-yl}methoxy)piperidin-1-yl]-1,2,4-oxadiazol-5-yl}benzoic acid]
5 | 946 | COC(=O)c1ccc(-c2nc(N3CCC(OCc4c(-c5ccccc5OC(F)(F)F)noc4C4CC4)CC3)no2)s1 [Example 3A, methyl 5-{3-[4-({5-cyclopropyl-3-[2-(trifluoromethoxy)phenyl]-1,2-oxazol-4-yl}methoxy)piperidin-1-yl]-1,2,4-oxadiazol-5-yl}thiophene-2-carboxylate]
6 | 275 | O=C(O)c1ccc(-c2nc(N3CCC(OCc4c(-c5ccccc5OC(F)(F)F)noc4C4CC4)CC3)no2)s1 [Example 3B, 5-{3-[4-({5-cyclopropyl-3-[2-(trifluoromethoxy)phenyl]-1,2-oxazol-4-yl}methoxy)piperidin-1-yl]-1,2,4-oxadiazol-5-yl}thiophene-2-carboxylic acid]
7 | 812 | COC(=O)c1ccc(-c2nc(N3CCC(OCc4c(-c5c(Cl)cccc5Cl)noc4C4CC4)CC3)no2)cc1 [Example 4A]
8 | 114 | O=C(O)c1ccc(-c2nc(N3CCC(OCc4c(-c5c(Cl)cccc5Cl)noc4C4CC4)CC3)no2)cc1 [Example 4B]
9 | 60 | O=C(O)c1cccc(-c2nc(N3CCC(OCc4c(-c5c(Cl)cccc5Cl)noc4C4CC4)CC3)no2)c1 [Example 5B, 3-[3-(4-{[5-cyclopropyl-3-(2,6-dichlorophenyl)-1,2-oxazol-4-yl]methoxy}piperidin-1-yl)-1,2,4-oxadiazol-5-yl]benzoic acid]
10 | 1620 | COC(=O)C1CCC(c2nc(N3CCC(OCc4c(-c5c(Cl)cccc5Cl)noc4C4CC4)CC3)no2)CC1 (stereo not shown) [Example 6A, methyl 4-[3-(4-{[5-cyclopropyl-3-(2,6-dichlorophenyl)-1,2-oxazol-4-yl]methoxy}piperidin-1-yl)-1,2,4-oxadiazol-5-yl]cyclohexane-1-carboxylate]
11 | 823 | O=C(O)C1CCC(c2nc(N3CCC(OCc4c(-c5c(Cl)cccc5Cl)noc4C4CC4)CC3)no2)CC1 (stereo not shown) [Example 6B, 4-[3-(4-{[5-cyclopropyl-3-(2,6-dichlorophenyl)-1,2-oxazol-4-yl]methoxy}piperidin-1-yl)-1,2,4-oxadiazol-5-yl]cyclohexane-1-carboxylic acid]
12 | 1590 | COC(=O)C1CCC(c2nc(N3CCC(OCc4c(-c5c(Cl)cccc5Cl)noc4C4CC4)CC3)no2)C1 (stereo not shown) [Example 7A, methyl-3-[3-(4-{[5-cyclopropyl-3-(2,6-dichlorophenyl)-1,2-oxazol-4-yl]methoxy}piperidin-1-yl)-1,2,4-oxadiazol-5-yl]cyclopentane-1-carboxylate]
13 | 1560 | O=C(O)C1CCC(c2nc(N3CCC(OCc4c(-c5c(Cl)cccc5Cl)noc4C4CC4)CC3)no2)C1 (stereo not shown) [Example 7B, 3-[3-(4-{[5-cyclopropyl-3-(2,6-dichlorophenyl)-1,2-oxazol-4-yl]methoxy}piperidin-1-yl)-1,2,4-oxadiazol-5-yl]cyclopentane-1-carboxylic acid]
14 | 2950 | COC(=O)c1ccc(-c2nc(N3CCC(OCc4c(-c5c(Cl)cccc5Cl)noc4C4CC4)CC3)no2)s1 [Example 8A, methyl 5-[3-(4-{[5-cyclopropyl-3-(2,6-dichlorophenyl)-1,2-oxazol-4-yl]methoxy}piperidin-1-yl)-1,2,4-oxadiazol-5-yl]thiophene-2-carboxylate]
15 | 105 | O=C(O)c1ccc(-c2nc(N3CCC(OCc4c(-c5c(Cl)cccc5Cl)noc4C4CC4)CC3)no2)s1 [Example 8B, 5-[3-(4-{[5-cyclopropyl-3-(2,6-dichlorophenyl)-1,2-oxazol-4-yl]methoxy}piperidin-1-yl)-1,2,4-oxadiazol-5-yl]thiophene-2-carboxylic acid]
16 | 463 | COC(=O)c1cccc(-c2nc(N3CCC(OCc4c(-c5c(Cl)cccc5Cl)noc4C4CC4)CC3)no2)n1 [Example 9A, methyl 6-[3-(4-{[5-cyclopropyl-3-(2,6-dichlorophenyl)-1,2-oxazol-4-yl]methoxy}piperidin-1-yl)-1,2,4-oxadiazol-5-yl]pyridine-2-carboxylate]
17 | 128 | O=C(O)c1cccc(-c2nc(N3CCC(OCc4c(-c5c(Cl)cccc5Cl)noc4C4CC4)CC3)no2)n1 [Example 9B, 6-[3-(4-{[5-cyclopropyl-3-(2,6-dichlorophenyl)-1,2-oxazol-4-yl]methoxy}piperidin-1-yl)-1,2,4-oxadiazol-5-yl]pyridine-2-carboxylic acid]
18 | 934 | O=C(O)c1ccc(-c2nc(N3CCC(OCc4c(-c5c(F)cccc5F)noc4C4CC4)CC3)no2)cc1 [Example 10, 4-[3-(4-{[5-cyclopropyl-3-(2,6-difluorophenyl)-1,2-oxazol-4-yl]methoxy}piperidin-1-yl)-1,2,4-oxadiazol-5-yl]benzoic acid]
19 | 587 | O=C(O)c1ccc(-c2nc(N3CCC(OCc4c(-c5ccccc5C(F)(F)F)noc4C4CC4)CC3)no2)cc1 [Example 11, 4-{3-[4-({5-cyclopropyl-3-[2-(trifluoromethyl)phenyl]-1,2-oxazol-4-yl}methoxy)piperidin-1-yl]-1,2,4-oxadiazol-5-yl}benzoic acid]
